Laboratory results taken from ChEMBL document CHEMBL1151262, “Labdane diterpenes from Aster spathulifolius and their cytotoxic effects on human cancer cell lines” (2005).
In brackets after ≈: the same amount, converted by molar mass.

Experiments:
Type in all cases: functional
Details in all cases: read-out: ED50 (the source's name)
A549 = experiment: Cytotoxicity against human A549 cells by SRB method
SK-OV-3 = experiment: Cytotoxicity against human SKOV3 cells by SRB method
SK-MEL-2 = experiment: Cytotoxicity against human SK-MEL-2 cells by SRB method
XF498 = experiment: Cytotoxicity against human XF498 cells by SRB method
HCT-15 = experiment: Cytotoxicity against human HCT15 cells by SRB method

SMILES | EC50 (A549) | EC50 (SK-OV-3) | EC50 (SK-MEL-2) | EC50 (XF498) | EC50 (HCT-15)
C=C[C@@](C)(CC[C@H]1C(C)=CC[C@H]2C(C)(C)CCC[C@]12C)O[C@@H]1O[C@@H](C)[C@@H](O)[C@H](O)[C@H]1O | 3.9 µg/mL (≈ 8.93 µM) | 5.7 µg/mL (≈ 13.1 µM) | 4.2 µg/mL (≈ 9.62 µM) | 8.9 µg/mL (≈ 20.4 µM) | 3.2 µg/mL (≈ 7.33 µM)
C=C[C@@](C)(CC[C@H]1C(C)=CC[C@H]2C(C)(C)CCC[C@]12C)O[C@@H]1O[C@@H](C)[C@@H](OC(C)=O)[C@H](O)[C@H]1O | 3.2 µg/mL (≈ 6.69 µM) | 3.4 µg/mL (≈ 7.1 µM) | 3.5 µg/mL (≈ 7.31 µM) | 3.8 µg/mL (≈ 7.94 µM) | 3.1 µg/mL (≈ 6.48 µM)
COc1cccc2c1C(=O)c1c(O)c3c(c(O)c1C2=O)C[C@@](O)(C(=O)CO)C[C@@H]3O[C@H]1C[C@H](N)[C@H](O)[C@H](C)O1 [DOXORUBICIN] | 0.012 µg/mL (≈ 0.0221 µM) | 0.12 µg/mL (≈ 0.221 µM) | 0.003 µg/mL (≈ 0.00552 µM) | 0.01 µg/mL (≈ 0.0184 µM) | 0.35 µg/mL (≈ 0.644 µM)
C=C[C@@]1(C)CC[C@H]2[C@]3(C)CCC[C@@](C)(C(=O)O)[C@H]3CC[C@]2(C)O1 | > 5 µg/mL | > 5 µg/mL | > 5 µg/mL | > 5 µg/mL | > 5 µg/mL
C=C[C@@](C)(CC[C@H]1C(C)=CC[C@H]2C(C)(C)CCC[C@]12C)O[C@@H]1O[C@H](C)[C@H](OC(C)=O)[C@H](O)[C@H]1O | 3.9 µg/mL (≈ 8.15 µM) | 5.8 µg/mL (≈ 12.1 µM) | 3.4 µg/mL (≈ 7.1 µM) | 8.9 µg/mL (≈ 18.6 µM) | 4.1 µg/mL (≈ 8.57 µM)
COc1cc([C@@H]2c3cc4c(cc3[C@@H](O[C@@H]3O[C@@H]5CO[C@@H](C)O[C@H]5[C@H](O)[C@H]3O)[C@H]3COC(=O)[C@H]23)OCO4)cc(OC)c1O [ETOPOSIDE] | 1.5 µg/mL (≈ 2.55 µM) | 2.7 µg/mL (≈ 4.59 µM) | 0.08 µg/mL (≈ 0.136 µM) | 2.6 µg/mL (≈ 4.42 µM) | 2.2 µg/mL (≈ 3.74 µM)
C=C[C@](C)(O)CC[C@H]1C(=C)[C@H](O)C[C@H]2C(C)(C)CCC[C@]12C | > 5 µg/mL | > 5 µg/mL | > 5 µg/mL | > 5 µg/mL | > 5 µg/mL
C=C[C@@](C)(CC[C@@H]1[C@@]2(C)CCCC(C)(C)[C@@H]2CC[C@@]1(C)O)O[C@@H]1O[C@H](C)[C@H](O)[C@H](O)[C@H]1O | > 5 µg/mL | > 5 µg/mL | > 5 µg/mL | > 5 µg/mL | > 5 µg/mL
C=C[C@@](C)(CC[C@@H]1[C@@]2(C)CCCC(C)(C)[C@@H]2CC[C@@]1(C)O)O[C@H]1O[C@H](C)[C@H](O)[C@@H](O)[C@@H]1O | > 5 µg/mL | > 5 µg/mL | > 5 µg/mL | > 5 µg/mL | > 5 µg/mL
C=C[C@](C)(O)CC[C@H]1C(C)=CC[C@H]2C(C)(C)CCC[C@]12C | 2.4 µg/mL (≈ 8.26 µM) | 8.7 µg/mL (≈ 29.9 µM) | 4.4 µg/mL (≈ 15.1 µM) | 9.5 µg/mL (≈ 32.7 µM) | 9.1 µg/mL (≈ 31.3 µM)
C=C[C@@](C)(CC[C@H]1C(C)=CC[C@H]2C(C)(C)CCC[C@]12C)O[C@@H]1O[C@H](C)[C@H](O)[C@H](OC(C)=O)[C@H]1O | 3.6 µg/mL (≈ 7.52 µM) | 3.8 µg/mL (≈ 7.94 µM) | 3.5 µg/mL (≈ 7.31 µM) | 5.1 µg/mL (≈ 10.7 µM) | 3.8 µg/mL (≈ 7.94 µM)
C=C[C@@](C)(O)CC[C@@H]1[C@@]2(C)CCCC(C)(C)[C@@H]2CC[C@@]1(C)O | > 5 µg/mL | > 5 µg/mL | > 5 µg/mL | > 5 µg/mL | > 5 µg/mL
C=C[C@@](C)(CC[C@H]1C(C)=CC[C@H]2C(C)(C)CCC[C@]12C)O[C@@H]1O[C@H](C)[C@H](O)[C@H](O)[C@H]1O | 3.5 µg/mL (≈ 8.02 µM) | 3.6 µg/mL (≈ 8.24 µM) | 3.5 µg/mL (≈ 8.02 µM) | 4.2 µg/mL (≈ 9.62 µM) | 3.9 µg/mL (≈ 8.93 µM)
